Source: patent US20200064348A1, “METHODS FOR DETERMINING INTERACTION BETWEEN BIOLOGICAL CELLS” (CeMM - Forschungszentrum für Molekulare Medizin GmbH, priority 2017, published 2020)
“Also recorded” adds a separate entry of the source.

Tests used:
CD11C and CD3 cells = assay: Interaction propensity of CD11C and CD3 cells in PBMC monolayers of a healthy donor; type: cell-based, human; conditions: PBMCs of a healthy donor, various concentrations, vs DMSO control
Experimental: FIG. 10: Measured interaction propensity expressed as Log 2 interaction score of CD11c and CD3 cells after treatment with the small molecule Crizotinib.
PBMCs of a healthy donor are treated with Crizotinib or DMSO control at various concentrations and the interaction propensity of CD11C and CD3 cells in non adherent cell monolayers obtained from treated and untreated combined sample according to WO 2016/046346 determined using the present invention.

B and NK cells = assay: Interaction propensity of B and NK cells in combined bone marrow and PBMCs of B-ALL patients; type: cell-based, human; conditions: B-ALL bone marrow plus PBMCs, vs PBS control
Source text: (§1) Bone marrow of a patients with B-cell acute lymphoblastic leukemia (B-ALL) and PBMCs of the same patient are combined, treated with Rituximab or PBS control and the interaction propensity of B and NK cells in non-adherent cell monolayers obtained from treated and untreated combined sample according to WO 2016/046346 determined using the present invention.

[1] = system: B (CD19 positive) and T cells (CD3 positive); assay: Interaction propensity of B (CD19 positive) and T cells (CD3 positive) in PBMC monolayers; type: cell-based, human; conditions: PBMC monolayers (healthy blood), 48 h, over PBS control (0)
Source text: FIG. 9: Measured interaction propensity expressed as Log 2 interaction score of CD3 cells to […] with increasing concentrations of the clinically approved biologic drug Blinatumomab, with media alone as a control (0). Blinatumomab has a known mechanism of action bringing together cytotoxic or other T-cells and cancerous B-cells, through this interaction, Inducing cancer cell killing and thus reducing the cancerous burden.
(§2) PBMC monolayers were provided as described in WO 2016/046346, treated with blinatumomab or PBS control (0) for 48 h, fixed, stained with fluorescently labeled CD3 and CD19 antibodies and imaged using automated confocal microscopy. Subsequently, the interaction propensity of B (CD19 positive) and T cells (CD3 positive) in the provided non-adherent cell monolayers was determined using the present invention.

[2] = system: B (CD19 positive) and NK cells (CD58 positive); assay: Interaction propensity of B (CD19 positive) and NK cells in PBMC monolayers; type: cell-based, human; conditions: 48 h, over PBS control (0)
Source text: FIG. 11: Measured interaction propensity expressed as Log 2 interaction score of CD19 cells to CD56 cells with increasing concentrations of the clinically approved biologic drug Rituxidmab, with media alone as a control (0). Rituximab has a known mechanism of action bringing together NK-cells and cancerous B-cells, and through this interaction inducing cancer, reducing the cancerous burden.
as §2, with “rituximab” for “blinatumomab”, “CD56” for “CD3”, “NK” for “T”, “([…]” for “(CD3”

B and T cells = assay: Interaction propensity of B and T cells in combined bone marrow and PBMCs of B-ALL patients; type: cell-based, human; conditions: B-ALL bone marrow plus PBMCs, vs PBS control
Source text: as §1, with “blinatumomab” for “Rituximab”, “T” for “NK”

[3] = system: CD10+ positive target cells and CD3+ T-cells; assay: Interaction of CD10 positive tumour cells with T-cells in pleural effusion/PBMC monolayers of a B-cell lymphoma patient; type: cell-based, human
Experimental: FIG. 12: interactions between CD10+ positive target cells, which according to pathology review comprised the tumour cells, and CD3+ T-cells were measured in a sample of a B-cell lymphoma patient in response to blinatumomab treatment for 24 h using the methods of the present invention and quantified as an interaction score. […] The different graphs show different amounts of cells isolated from pleural effusion (PE) of the patient mixed with different amounts of matched PBMCs from the same patient.
Pleural effusion from a patient with a B-cell lymphoma was collected by gradient density centrifugation. This pleural effusion consisted of a mixture of cell types found in bone marrow and PBMCs having migrated to the pleural cavity with concomitant fluid build-up and contained cancer as well as healthy cells. A matched sample of blood was also purified over Lymphoprep gradient. Cells obtained from the pleural effusion were titrated against cells from the matched PBMC samples and monolayers prepared according to WO2016/046346. Monolayers were treated with different concentrations of blinatumomab and the interaction of tumour cell populations previously determined to be CD10 positive by a pathologist with effector T-cells determined using the methods described in the present invention.

B-cell lymphoma = assay: Clinical response of the B-cell lymphoma patient to treatment; type: in vivo, human; conditions: one B-cell lymphoma patient given the drug
[4] = patients not responding clinically
[5] = patients responding to the drug

**Q.** How did the “interaction of DCs and T-cells as indicated by the interaction score” value (CD11C and CD3 cells) turn out when `C[C@@H](Oc1cc(-c2cnn(C3CCNCC3)c2)cnc1N)c1c(Cl)ccc(F)c1Cl` [Crizotinib] was run?
**A.** The value was “increase”.

**Q.** For “Rituximab: anti-CD20 antibody that links B and NK cells, inducing NK cells to kill B cells”, which “interaction propensity between B and NK cells” value (B and NK cells; [4]) is on record?
**A.** The value was “do not exhibit this increase”.

**Q.** What about the “interaction propensity between B and NK cells” value (B and NK cells; [5]) of the same compound?
**A.** The value was “increase”.

**Q.** “blinatumomab: bispecific antibody in BITE format that cross links B and T cells inducing T cells to kill B cells” was tested. Which “interaction propensity between B and T cells” value [1] did it give?
**A.** The value was “increases”.

**Q.** What about the “interaction propensity between B and T cells” value ([1]; listed as blinatomumab) of the same compound?
**A.** The value was “increase”.

**Q.** And the “interaction propensity between B and NK cells” value [2]?
**A.** The value was “increase”.

**Q.** What about the “interaction propensity between B and T cells” value (B and T cells; [4]) of the same compound?
**A.** The value was “do not exhibit this increase”.

**Q.** What about the “interaction propensity between B and T cells” value (B and T cells; [5]) of the same compound?
**A.** Its value is “increase”.

**Q.** What about the “fraction of tumour B-cells” value ([3]; B-cell lymphoma patient sample, ex vivo treatment) of the same compound?
**A.** The value was “did not change significantly”.

**Q.** What about the “interaction of CD10 positive tumour cells with effector T-cells (interaction score)” value ([3]; B-cell lymphoma patient, pleural effusion cells mixed with matched PBMCs, different concentrations, 24 h) of the same compound?
**A.** Its value is “this was not the case for this patient; also recorded: no such interaction change was observed”.

**Q.** What about the “clinical response of the patient” value (B-cell lymphoma) of the same compound?
**A.** Its value is “not to respond; also recorded: transient and weak response”.
